Measured values from patent US9340549B2, “Oxazolidinone compounds and derivatives thereof” (priority 2012, dated 2016).

target: 6×HIS-tankyrase 1 (1091-1325) (Homo sapiens (Human), UniProt O95271); assay: biochemical; type: biochemical; conditions: 0.25 nM enzyme, 400 nM NAD, 60 minutes at room temperature; read-out: TNKS1 IP IC50
Sequence (O95271 1091-1325): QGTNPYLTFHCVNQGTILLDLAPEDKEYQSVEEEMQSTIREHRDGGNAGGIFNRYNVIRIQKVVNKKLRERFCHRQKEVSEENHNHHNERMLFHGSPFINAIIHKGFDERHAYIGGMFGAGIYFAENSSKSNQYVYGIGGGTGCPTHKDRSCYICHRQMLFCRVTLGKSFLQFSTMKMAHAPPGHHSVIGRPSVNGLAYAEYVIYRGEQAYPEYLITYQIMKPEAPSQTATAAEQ

Row | Structure (SMILES) | IC50 [nM]
1 | Cc1ccc([C@H]2CC[C@@H](N3C(=O)OC(C)(C)[C@@H]3c3ccccc3)CC2)cn1 [Example 134, (S)-5,5-dimethyl-3-((1 s,4r)-4-(6-methylpyridin-3-yl)cyclohexyl)-4-phenyloxazolidin-2-one] | > 46300
2 | CC1(C)OC(=O)N([C@H]2C[C@H](c3nnc(-c4ccccc4)o3)C2)[C@@H]1c1ccccc1 (single isomer, unassigned) [Example 176] | 3130
3 | Cc1ccc([C@H]2CC[C@H](N3C(=O)OC(C)(C)[C@@H]3c3ccccc3)CC2)cn1 [Example 135, (S)-5,5-dimethyl-3-((1r,4s)-4-(6-methylpyridin-3-yl)cyclohexyl)-4-phenyloxazolidin-2-one] | 1380
4 | CC1(C)OC(=O)N([C@H]2CC[C@@H](c3cnc4[nH]ccc4c3)CC2)[C@H]1c1ccccc1 [Example 136, (S)-3-((1s,4r)-4-(1H-pyrrolo[2,3-b]pyridin-5-yl)cyclohexyl)-5,5-dimethyl-4-phenyloxazolidin-2-one] | 5.17
5 | CC1(C)OC(=O)N([C@H]2C[C@H](c3nnc(-c4ccccc4)o3)C2)[C@H]1c1ccccc1 (single isomer, unassigned) [Example 177] | 1020
6 | CC1(C)OC(=O)N([C@H]2CC[C@H](c3cccnc3)CC2)[C@H]1c1ccccc1 [Example 133, (S)-5,5-dimethyl-4-phenyl-3-((1r,4s)-4-(pyridin-3-yl)cyclohexyl)oxazolidin-2-one] | 1380
7 | CC1(C)OC(=O)N([C@H]2CC[C@@H](c3cc4ccncc4[nH]c3=O)CC2)[C@H]1c1ccccc1 [Example 138, (S)-5,5-dimethyl-3-((1s,4r)-4-(2-oxo-1,2-dihydro-1,7-naphthyridin-3-yl)cyclohexyl)-4-phenyloxazolidin-2-one] | 1250

same assay, conditions: […] enzyme, 400 nM NAD, 60 minutes at room temperature; read-out: TNKS1 IP IC50

Row | Structure (SMILES) | IC50 [nM]
8 | CC1(C)OC(=O)N([C@H]2CC[C@H](NC(=O)c3ccc4cc[nH]c4n3)CC2)[C@H]1c1ccccc1 [Example 147, N-((1S,4r)-4-((S)-5,5-dimethyl-2-oxo-4-phenyloxazolidin-3-yl)cyclohexyl)-1H-pyrrolo[2,3-b]pyridine-6-carboxamide] | 26.4
9 | CC1(C)OC(=O)N(c2ccc(C(=O)Nc3cnccc3O)cc2)[C@H]1c1ccccc1 [Example 21, (S)-4-(5,5-dimethyl-2-oxo-4-phenyloxazolidin-3-yl)-N-(4-hydroxypyridin-3-yl)benzamide] | 1340
10 | CC1(C)OC(=O)N([C@H]2CC[C@H](NC(=O)c3ccncc3)CC2)[C@H]1c1ccccc1 [Example 142, N-((1S,4r)-4-((S)-5,5-dimethyl-2-oxo-4-phenyloxazolidin-3-yl)cyclohexyl)isonicotinamide] | 205
11 | Cn1cc(C(=O)N[C@H]2CC[C@H](N3C(=O)OC(C)(C)[C@@H]3c3ccccc3)CC2)c2ccccc21 [Example 143, N-((1R,4r)-4-((R)-5,5-dimethyl-2-oxo-4-phenyloxazolidin-3-yl)cyclohexyl)-1-methyl-1H-indole-3-carboxamide] | 225
12 | CC1(C)OC(=O)N([C@H]2CC[C@H](NC(=O)c3cnn4cccnc34)CC2)[C@H]1c1ccccc1 [Example 146, N-((1S,4r)-4-((S)-5,5-dimethyl-2-oxo-4-phenyloxazolidin-3-yl)cyclohexyl)pyrazolo[1,5-a]pyrimidine-3-carboxamide] | 9.18
13 | CC1(C)OC(=O)N(C2CC=C(c3cc4ccncc4[nH]c3=O)CC2)[C@H]1c1ccccc1 (stereo partly drawn) [Example 87, (4S)-5,5-dimethyl-3-(4-(2-oxo-1,2-dihydro-1,7-naphthyridin-3-yl)cyclohex-3-en-1-yl)-4-phenyloxazolidin-2-one] | 6.91
14 | CC1(C)OC(=O)N([C@H]2CC[C@H](NC(=O)c3ccc4scnc4c3)CC2)[C@H]1c1ccccc1 [Example 150, N-((1S,4r)-4-((S)-5,5-dimethyl-2-oxo-4-phenyloxazolidin-3-yl)cyclohexyl)benzo[d]thiazole-5-carboxamide] | 1540

Second part, the molecule after the results:

Row | IC50 [nM] | Structure (SMILES)
15 | > 46300 | Cc1nc(C(=O)N[C@H]2CC[C@H](N3C(=O)OC(C)(C)[C@@H]3c3ccccc3)CC2)cs1 [Example 166, N-((1S,4r)-4-((S)-5,5-dimethyl-2-oxo-4-phenyloxazolidin-3-yl)cyclohexyl)-2-methylthiazole-4-carboxamide]
16 | 142 | CC1(C)OC(=O)N([C@H]2CC[C@H](NC(=O)c3ccc[nH]3)CC2)[C@H]1c1ccccc1 [Example 158, N-((1S,4r)-4-((S)-5,5-dimethyl-2-oxo-4-phenyloxazolidin-3-yl)cyclohexyl)-1H-pyrrole-2-carboxamide]
17 | > 46300 | CC1(C)OC(=O)N([C@H]2CC[C@H](NC(=O)c3csc(-c4ccncc4)n3)CC2)[C@H]1c1ccccc1 [Example 167, N-((1S,4r)-4-((S)-5,5-dimethyl-2-oxo-4-phenyloxazolidin-3-yl)cyclohexyl)-2-(pyridin-4-yl)thiazole-4-carboxamide]
18 | 220 | COc1ccccc1C(=O)N[C@H]1CC[C@H](N2C(=O)OC(C)(C)[C@@H]2c2ccccc2)CC1 [Example 163, N-((1S,4r)-4-((S)-5,5-dimethyl-2-oxo-4-phenyloxazolidin-3-yl)cyclohexyl)-2-methoxybenzamide]
19 | 0.375 | C[C@H]1OC(=O)N([C@H]2CC[C@H](n3c(=O)[nH]c4cc(C#N)ccc43)CC2)[C@H]1c1ccccc1 [Example 178, 1-((1R,4s)-4-((4S,5R)-5-methyl-2-oxo-4-phenyloxazolidin-3-yl)cyclohexyl)-2-oxo-2,3-dihydro-1H-benzo[d]imidazole-5-carbonitrile]
20 | 260 | CC1(C)OC(=O)N([C@H]2CC[C@H](NC(=O)c3ccncn3)CC2)[C@H]1c1ccccc1 [Example 165, N-((1S,4r)-4-((S)-5,5-dimethyl-2-oxo-4-phenyloxazolidin-3-yl)cyclohexyl)pyrimidine-4-carboxamide]
21 | 1460 | CC1(C)OC(=O)N([C@H]2CC[C@H](NC(=O)c3nccs3)CC2)[C@H]1c1ccccc1 [Example 160, N-((1S,4r)-4-((S)-5,5-dimethyl-2-oxo-4-phenyloxazolidin-3-yl)cyclohexyl)thiazole-2-carboxamide]
22 | > 46300 | CC1(C)OC(=O)N([C@H]2CC[C@H](NC(=O)c3cscn3)CC2)[C@H]1c1ccccc1 [Example 168, N-((1S,4r)-4-((S)-5,5-dimethyl-2-oxo-4-phenyloxazolidin-3-yl)cyclohexyl)thiazole-4-carboxamide]
23 | 101 | CC1(C)OC(=O)N([C@H]2CC[C@H](NC(=O)c3cn4ccccc4n3)CC2)[C@@H]1c1ccccc1 [Example 162, N-((1R,4r)-4-((R)-5,5-dimethyl-2-oxo-4-phenyloxazolidin-3-yl)cyclohexyl)imidazo[1,2-a]pyridine-2-carboxamide]
24 | 714 | CC1(C)OC(=O)N([C@H]2CC[C@H](n3ncc4cc(C#N)ccc43)CC2)[C@H]1c1ccccc1 [Example 181, 1-((1S,4r)-4-((S)-5,5-dimethyl-2-oxo-4-phenyloxazolidin-3-yl)cyclohexyl)-1H-indazole-5-carbonitrile]
25 | 51.9 | CC1(C)OC(=O)N([C@H]2CC[C@H](NC(=O)c3coc(-c4ccccc4)n3)CC2)[C@H]1c1ccccc1 [Example 164, N-((1S,4r)-4-((S)-5,5-dimethyl-2-oxo-4-phenyloxazolidin-3-yl)cyclohexyl)-2-phenyloxazole-4-carboxamide]
26 | 1560 | CC1(C)OC(=O)N([C@H]2CC[C@H](NC(=O)c3ccc4nccn4c3)CC2)[C@H]1c1ccccc1 [Example 159, N-((1S,4r)-4-((S)-5,5-dimethyl-2-oxo-4-phenyloxazolidin-3-yl)cyclohexyl)imidazo[1,2-a]pyridine-6-carboxamide]
27 | 548 | CC1(C)OC(=O)N([C@H]2CC[C@H](NC(=O)c3cnc4ccccc4c3)CC2)[C@@H]1c1ccccc1 [Example 155, N-((1R,4r)-4-((R)-5,5-dimethyl-2-oxo-4-phenyloxazolidin-3-yl)cyclohexyl)quinoline-3-carboxamide]
28 | 76.8 | CC1(C)OC(=O)N([C@H]2CC[C@H](NC(=O)c3nc4ccccc4[nH]3)CC2)[C@H]1c1ccccc1 [Example 157, N-((1S,4r)-4-((S)-5,5-dimethyl-2-oxo-4-phenyloxazolidin-3-yl)cyclohexyl)-1H-benzo[d]imidazole-2-carboxamide]
29 | 129 | C[C@@H]1OC(=O)N([C@H]2CC[C@H](n3c(=O)[nH]c4cc(C#N)ccc43)CC2)C1c1ccccc1 (stereo partly drawn) [Example 179, 1-((1R,4r)-4-((4R,5S)-5-methyl-2-oxo-4-phenyloxazolidin-3-yl)cyclohexyl)-2-oxo-2,3-dihydro-1H-benzo[d]imidazole-5-carbonitrile]
30 | 3.94 | CC1(C)OC(=O)N([C@H]2CC[C@H](NC(=O)c3csc(-c4ncccn4)n3)CC2)[C@H]1c1ccccc1 [Example 183, N-((1S,4r)-4-((S)-5,5-dimethyl-2-oxo-4-phenyloxazolidin-3-yl)cyclohexyl)-2-(pyrimidin-2-yl)thiazole-4-carboxamide]
31 | 350 | CC1(C)OC(=O)N([C@H]2CC[C@H](NC(=O)c3cnn(-c4ccccc4)c3)CC2)[C@H]1c1ccccc1 [Example 161, N-((1S,4r)-4-((S)-5,5-dimethyl-2-oxo-4-phenyloxazolidin-3-yl)cyclohexyl)-1-phenyl-1H-pyrazole-4-carboxamide]
32 | 16600 | Cn1cncc1C(=O)N[C@H]1CC[C@H](N2C(=O)OC(C)(C)[C@@H]2c2ccccc2)CC1 [Example 151, N-((1S,4r)-4-((S)-5,5-dimethyl-2-oxo-4-phenyloxazolidin-3-yl)cyclohexyl)-1-methyl-1H-imidazole-5-carboxamide]
33 | 915 | CC1(C)OC(=O)N([C@H]2CC[C@H](n3ncc4cc(C#N)ccc43)CC2)[C@@H]1c1ccccc1 [Example 180, 1-((1R,4r)-4-((R)-5,5-dimethyl-2-oxo-4-phenyloxazolidin-3-yl)cyclohexyl)-1H-indazole-5-carbonitrile]
34 | 1250 | CC1(C)OC(=O)N([C@H]2CC[C@@H](c3cnc4cc[nH]c4c3)CC2)[C@H]1c1ccccc1 [Example 172, (S)-3-((1s,4R)-4-(1H-pyrrolo[3,2-b]pyridin-6-yl)cyclohexyl)-5,5-dimethyl-4-phenyloxazolidin-2-one]
